In patent US8669072B2, “Oxadiazoline ligands for modulating the expression of exogenous genes via an ecdysone receptor complex” (Intrexon Corporation, priority 2003, dated 2014):

What was measured:
[1] = biological target: T1, GAL4 DBD-CfEcR(DEF)/VP16AD-MmRXRE (Choristoneura fumiferana, UniProt O77240); assay: 13B3 assay: luciferase reporter gene induction in stable CHO clone 13B3; format: cell-based; conditions: 33/33.3 μM ligand, 48 h, RLU relative to DMSO; for fold induction at 33.3 µM: read-out: Fold Induction Average, 13B3 assay
T1 construct: The wild-type D, E, and F domains from spruce budworm Choristoneura fumiferana EcR (“CfEcR-DEF”)
Procedure: CHO cells were transiently transfected with transcription cassettes for GAL4 DBD-CfEcR(DEF) and for VP16AD-MmRXRF controlled by SV40e promoters. Stably transfected cells were selected using Hygromycin. Individually isolated CHO cell clones were transiently transfected with a GAL4 RE-luciferase reporter (pFR-Luc, Stratagene, La Jolla, Calif.). The 13B3 clone was selected using Zeocin.
Cells were trypsinized and diluted to a concentration of 2.5×10^4 cells mL. 100 μL of cell suspension was placed in each well of a 96 well plate and incubated at 37° C. under 5% CO2 for 24 h. Ligand stock solutions were prepared in DMSO and diluted 300 fold for all treatments.
Luciferase reporter gene expression was measured 48 h after cell treatment using Bright-Glo™ Luciferase Assay System from Promega (E2650). Luminescence was detected at room temperature using a Dynex MLX microtiter plate luminometer.
(§1) Each assay was conducted in two separate wells, and the two values were averaged. Fold inductions were calculated by dividing relative light units (“RLU”) in ligand treated cells with RLU in DMSO treated cells. EC50s were calculated from dose response data using a three-parameter logistic model.

Bombyx mori EcR (VBE) = biological target: T2, Bombyx mori EcR (VBE) (Bombyx mori, UniProt P49881); assay: Z3 assay: β-galactosidase reporter gene induction in HEK-293 clone Z3 (CVBE / 6XEcRE LacZ); format: cell-based; conditions: 33 μM ligand, 48 h, RLU relative to DMSO; for fold induction at 33 µM: HEK293, read-out: Fold Induction Average, Z3 assay
T2 construct: expressed in transfected cells; host or cells: Human HEK-293 cells, retrovirally infected, clone Z3
T2 sequence (P49881 86-606 limits assumed): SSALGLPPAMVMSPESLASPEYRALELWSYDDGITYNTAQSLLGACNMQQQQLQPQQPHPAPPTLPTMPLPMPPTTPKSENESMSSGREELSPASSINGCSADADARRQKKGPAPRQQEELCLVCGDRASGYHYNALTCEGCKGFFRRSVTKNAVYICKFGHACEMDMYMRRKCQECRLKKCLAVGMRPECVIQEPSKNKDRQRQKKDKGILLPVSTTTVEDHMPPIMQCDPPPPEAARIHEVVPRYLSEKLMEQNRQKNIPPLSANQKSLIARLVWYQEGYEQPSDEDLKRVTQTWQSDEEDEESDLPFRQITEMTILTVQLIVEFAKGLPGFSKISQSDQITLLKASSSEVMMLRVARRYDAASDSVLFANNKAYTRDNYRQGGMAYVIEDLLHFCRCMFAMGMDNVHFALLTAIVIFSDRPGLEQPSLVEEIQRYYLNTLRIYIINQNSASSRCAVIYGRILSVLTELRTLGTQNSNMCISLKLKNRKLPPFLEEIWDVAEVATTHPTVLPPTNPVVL
T2 sequence (P19793 1-462 partner): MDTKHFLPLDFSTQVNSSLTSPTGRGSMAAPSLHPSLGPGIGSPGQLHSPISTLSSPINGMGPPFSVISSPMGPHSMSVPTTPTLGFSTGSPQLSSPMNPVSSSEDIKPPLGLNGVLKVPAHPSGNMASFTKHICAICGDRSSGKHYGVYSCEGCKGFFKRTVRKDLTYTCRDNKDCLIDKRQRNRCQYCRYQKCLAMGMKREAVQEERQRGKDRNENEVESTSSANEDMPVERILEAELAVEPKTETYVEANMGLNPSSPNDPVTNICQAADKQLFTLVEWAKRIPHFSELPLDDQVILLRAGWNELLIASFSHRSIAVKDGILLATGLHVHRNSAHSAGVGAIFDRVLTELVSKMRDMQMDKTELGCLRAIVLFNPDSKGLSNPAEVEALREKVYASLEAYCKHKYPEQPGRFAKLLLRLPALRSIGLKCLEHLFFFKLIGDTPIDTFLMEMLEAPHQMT
Procedure: A synthetic ATG start codon was placed under the control of cytomegalovirus (CVBE) immediate early promoter and flanked by long terminal repeats (LTR). The reporter construct contained six copies of the ecdysone response element (EcRE) binding site placed upstream of LacZ and flanked on both sides with LTR sequences (6×EcRE).
Dilution cloning was used to isolate individual clones. Clones were selected using 450 ug/mL G418 and 100 ng/mL puromycin. Individual clones were evaluated based on their response in the presence and absence of test ligands.
Z3 cells were seeded into 96-well tissue culture plates at a concentration of 2.5×10^3 cells per well and incubated at 37° C. in 5% CO2 for twenty-four hours. Stock solutions of ligands were prepared in DMSO. […] The final concentration of DMSO was maintained at 0.03% in both controls and treatments.
Reporter gene expression was evaluated 48 hours after treatment of cells, β-galactosidase activity was measured using Gal Screen™ bioluminescent reporter gene assay system from Tropix (GSY1000). Fold induction activities were calculated by dividing relative light units (“RLU”) in ligand treated cells with RLU in DMSO treated cells. Luminescence was detected at room temperature using a Dynex MLX microtiter plate luminometer.
as §1

| SMILES | Fold Induction Average, 13B3 assay [1] | Fold Induction Average, Z3 assay (Bombyx mori EcR (VBE)) | fold induction at 33.3 µM [1] | fold induction at 33 µM (Bombyx mori EcR (VBE)) |
| --- | --- | --- | --- | --- |
| CC1(C)ON=C(c2ccc(Cl)cc2)N1NC(=O)COCc1ccccc1 [RG-120117] | 1.2 | 0.8 |  |  |
| CC1(C)ON=C(c2ccc(Cl)cc2)N1NC(=O)Cc1ccccc1 [RG-120121] | 0.1 | 0.7 |  |  |
| CC1(C)ON=C(c2ccc3c(c2)OCO3)N1NC(=O)Nc1ccccc1 [RG-120017] | 0.8 | 0.9 |  |  |
| COc1ccccc1C1=NOC(C)(C)N1NC(=O)COCc1ccccc1 [RG-120018] | 0.8 | 0.7 |  |  |
| COc1ccccc1C(=O)NN1C(c2cc(C)cc(C)c2)=NOC1(C)C [RG-120075] | 1.1 | 0.7 |  |  |
| CCOC(=O)CCC(=O)NN1C(c2cccc(C(F)(F)F)c2)=NOC1(C)C [RG-120153] | 0.8 | 0.7 |  |  |
| CCc1c(OC)cccc1C(=O)NN1C(c2ccc(-c3ccccc3)cc2)=NOC1(C)C [RG-120020] | 1.3 | 0.2 |  |  |
| CCOC(=O)CCC(=O)NN1C(c2ccc(Cl)cc2)=NOC1(C)C [RG-120164] | 1.7 | 0.6 |  |  |
| COc1cccc(C(=O)NN2C(c3cc(C)cc(C)c3)=NOC23CCOCC3)c1C [RG-120086, N-[3-(3,5-dimethyl-phenyl)-1,8-dioxa-2,4-diaza-spiro[4.5]dec-2-en-4-yl]-3-methoxy-2-methyl-benzamide] |  |  | 4 | 112 |
| CC1(C)ON=C(c2ccc3c(c2)OCO3)N1NC(=O)c1ccccc1 [RG-120156] | 1.4 | 0.7 |  |  |
| CC1(C)ON=C(c2ccc(OC(F)(F)F)cc2)N1NC(=O)c1ccco1 [RG-120094] | 0.6 | 0.8 |  |  |
| CC1(C)ON=C(c2ccc(Cl)cc2)N1NC(=O)c1ccccc1 [RG-120151] | 0.3 | 0.8 |  |  |
| CC1(C)ON=C(c2ccc3c(c2)OCO3)N1NC(=O)c1cc2ccccc2s1 [RG-120140] | 1.4 | 0.5 |  |  |
| COc1ccccc1C1=NOC(C)(C)N1NC(=O)c1ccccc1 [RG-120147] | 1.1 | 1.0 |  |  |
| Cc1cc(C)cc(C2=NOC(C)(C)N2NC(=O)NC(=O)c2ccccc2)c1 [RG-120111] | 0.6 | 0.7 |  |  |
| CC1(C)ON=C(c2ccc(Cl)cc2)N1NC(=O)c1cc2ccccc2s1 [RG-120087] | 0.4 | 0.4 |  |  |
| COc1ccc(C2=NOC(C)(C)N2NC(=O)COCc2ccccc2)c(OC)c1 [RG-120110] | 0.8 | 0.5 |  |  |
| CC1(C)ON=C(c2ccc3c(c2)OCO3)N1NC(=O)COc1ccccc1 [RG-120127] | 0.6 | 0.7 |  |  |
| COc1ccccc1C1=NOC(C)(C)N1NC(=O)c1cc2ccccc2s1 [RG-120047] | 973.9 | 31.9 |  |  |
| CC1(C)ON=C(c2ccc(Cl)cc2)N1NC(=O)Nc1ccccc1 [RG-120067] | 2.6 | 0.5 |  |  |
| CCc1ccc(C(=O)NN2C(c3ccc(-c4ccccc4)cc3)=NOC2(C)C)cc1 [RG-120142] | 0.3 | 0.4 |  |  |
| Cc1cc(C)cc(C2=NOC(C)(C)N2NC(=O)Nc2ccccc2)c1 [RG-120072, 1-[3-(3,5-Dimethyl-phenyl)-5,5-dimethyl-[1,2,4]oxadiazol-4-yl]-3-phenyl-urea] |  |  | 0.6 | 1.3 |
| CC1(C)ON=C(c2ccc(Cl)cc2)N1NC(=O)c1ccco1 [RG-120082] | 0.1 | 0.8 |  |  |
